Results published in patent publication US7332615B2, “Hydrophilic analogs of 4,8-dihydrobenzodithiophene-4,8-diones as anticancer agents” (Industrial Technology Research Institute, priority 2004, dated 2008).
Structures can show the parent of a compound that is named as a salt. Where two headings read alike, the source gives them in different places.

Tests used:
[1] = test system: epidermoid carcinoma of the nasopharynx (KB); assay: Cytotoxicity Assays Method C, KB; type: cell-based; conditions: read-out: IC50 KB
[2] = test system: p-gp-expressing epidermoid carcinoma of the nasopharynx (KB-VIN); assay: Cytotoxicity Assays Method C, KB-VIN; type: cell-based; conditions: for IC50: 50% reduction in cell number after 72 hr of incubation
Text: Cytotoxicity Assays Method C (KB, KB-VIN, AS49, HCT-8, PC-3) [K. H. Lee et. al. Planta Med. 54, 308-312 (1998), Monk A et. al. J. Natl. Cancer Inst. 83, 757-766 (1991).] The cell lines included epidermoid caninoma of the nasopharynx (KB), p-gp-expressing epidermoid caninoma of the nasopharynx (KB-VIN), lung carcinoma (A-549), ileocecal carinoma (HCT-8) and prostate cancer (PC-3) cell lines.

lung carcinoma (A-549) = assay: Cytotoxicity Assays Method C, A-549; type: cell-based; conditions: read-out: IC50 A549
[3] = test system: ileocecal carcinoma (HCT-8); assay: Cytotoxicity Assays Method C, HCT-8; type: cell-based; conditions: read-out: IC50 HCT-8
prostate cancer (PC-3) = assay: Cytotoxicity Assays Method C, PC-3; type: cell-based; conditions: for IC50: read-out: IC50 PC-3
Water solubility = type: physicochemical; conditions: in H2O; for solubility: water
[4] = test system: Human promyeloid leukemia HL-60 cells; assay: Cytotoxicity Assays Method B (MTT proliferation assay), HL-60; type: cell-based; conditions: Homo sapiens, read-out: IC50 (concentration at which 50% of the cells are inhibited from growing)
Procedure: Cytotoxicity Assays Method B (HL-60) [H. M. Chen et al. Chin. Pharm. J. 53, 157-167 (2001)]
Human promyeloid leukemia HL-60 cells were obtained from the American Type
Culture Collection (Manassas, Va., USA) and the Culture Collection and Research Center(CCRC) (Tai wan, ROC). Human promyeloid leukemia HL-60 cells were cultured in suspension in RPMI-1640 medium (GIBCO, Grand Is land, USA), containing 10% fetal bovine se rum (GIBCO, Grand Is land, USA), 100 unit/mL penicillin, […] streptomycin and 1% L-glutamine at 37° C. in a humidified atmosphere of 5% CO2 in air. Cells were split every day to maintain the cell numbers between 2−5×10^5/mL. Cell numbers were assessed by the standard procedure of leukocyte counting using a hemocytometer and cell viability was checked by the ability of cells to exclude Trypan blue.
Cellular proliferation was determined by the MTT [3-(4,5-dimethylthiazol-2-yl)-2,5-diphenyltetrazolium bromide] as say. Briefly, […] of MTT (5 mg/mL) was added to each well of 96-well plates containing 1×10^5 cells after treatment with different concentrations of samples for 4 days. The reaction was stopped after 2 h by adding […] of 0.04 N HCl in isopropanol and the OD570 nm was determined by a minicolorimetric reader. Each concentration treatment was performed in triplicate.

[5] = 72 h, KB, 50% reduction in cell number after 72 hr of incubation
[6] = Homo sapiens, A549, 72 h, A549, 50% reduction in cell number after 72 hr of incubation
[7] = Homo sapiens, HCT-8, 72 h, HCT-8, 50% reduction in cell number after 72 hr of incubation
[8] = 72 h, PC-3, 50% reduction in cell number after 72 hr of incubation
[9] = A549, 50% reduction in cell number after 72 hr of incubation
[10] = KB, 50% reduction in cell number after 72 hr of incubation
[11] = HCT-8, 50% reduction in cell number after 72 hr of incubation
[12] = PC-3, 50% reduction in cell number after 72 hr of incubation

Row | SMILES | IC50 [1, 5] [nM] | IC50 [2] [nM] | IC50 (lung carcinoma (A-549); [6]) [nM] | IC50 [3, 7] [nM] | IC50 (prostate cancer (PC-3); [8]) [nM] | solubility (Water solubility) [µg/mL] | IC50 (lung carcinoma (A-549); [9]) [nM] | other results
1 | O=C([O-])CCC(=O)OCc1cc2c(s1)C(=O)c1sccc1C2=O.[Na+] [IIa-1-Na, Sodium mono-[1-(4,8-dioxo-4,8-dihydrobenzo[1,2-b:5,4-b′]dithiophen-2-yl)-methyl]succinate] | 2090 | 3790 | 3790 | 3250 | 1220 | ≥ 10000 | – | –
2 | O=C(O)c1cc2c(s1)C(=O)c1ccsc1C2=O [XIV, 4,8-dioxo-4,8-dihydrobenzo-[1,2-b;4,5-b′]dithiophene-2-carboxylic acid] | 38300 | – | – | 44100 | 25300 | – | 44400 | IC50 ([2]; Homo sapiens, KBVIN, 72 h): 38300 nM
3 | CC[C@]1(O)C[C@H]2CN(CCc3c([nH]c4ccccc34)[C@@](C(=O)OC)(c3cc4c(cc3OC)N(C=O)[C@H]3[C@@](O)(C(=O)OC)[C@H](OC(C)=O)[C@]5(CC)C=CCN6CC[C@]43[C@@H]65)C2)C1 [VCR, reference compound] | – | 5330 | – | – | – | – | 40 | IC50 [1, 10]: 10 nM
4 | C[C@H](NC(=O)c1cc2c(s1)C(=O)c1sccc1C2=O)C(=O)[O-].[Na+] [XIII-Na, Sodium (L)-2-{(4,8-dioxo-4,8-dihydrobenzo-[1,2-b;5,4-b′]dithiophene-2-carbonyl)-amino}-propionate] | – | – | – | – | – | ≥ 6600 | – | –
5 | CN(C)CCNC(=O)c1cc2c(s1)C(=O)c1sccc1C2=O [XVII-H3PO4, 4,8dioxo-4,8-dihydrobenzo[1,2-b;5,4-b′]dithiophene-2-carboxylate-(2-dimethyl-aminoethyl)-amide phosphoric acid salt] | – | – | – | – | – | ≥ 2000 | – | –
6 | O=C([O-])COCc1cc2c(s1)C(=O)c1sccc1C2=O.[Na+] [IVa-Na, Sodium 4,8-dioxo-4,8-dihydroxybenzo[1,2-b:5,4-b′]-dithiophen-2-yl-methoxy acetate] | – | – | – | – | – | ≥ 9600 | – | –
7 | CC(O)c1cc2c(s1)C(=O)c1sccc1C2=O (stereo not drawn) [Compound 1b, reference compound] | – | – | – | – | – | – | – | Solubility (water solubility) (Water solubility): 9.6 × 10^−3 mg/1 mL H2O
8 | C[C@H](NC(=O)c1cc2c(s1)C(=O)c1ccsc1C2=O)C(=O)O [XVI, (L)-2-{(4,8-Dioxo-4,8-dihydrobenzo-[1,2-b;4,5-b′]dithiophene-2-carbonyl)-amino}-propionic acid] | – | – | – | – | – | – | – | IC50 ([4]; 96 h, HL-60, MTT, treatment for 4 days): 750 nM
9 | O=C([O][Na+])c1cc2c(s1)C(=O)c1sccc1C2=O [XI-Na, Sodium 4,8-dioxo-4,8-dihydrobenzo-[1,2-b:5,4-b′]dithiophene-2 carboxylate] | – | – | – | – | – | ≥ 10000 | – | –
10 | CC(OC(=O)CCCC(=O)O)c1cc2c(s1)C(=O)c1sccc1C2=O (stereo not drawn) [IIb-2, Mono-[1-(4,8-dioxo-4,8-dihydrobenzo[1,2-b:5,4-b′]dithiophen-2-yl)-ethyl]pentanedioate] | – | 50 | – | – | – | – | – | IC50 ([4]; HL-60, 96 h): 250 nM; IC50 ([1]; 72 h): 30 nM; activity against the MDR cell line KB-VIN (in words) ([2]; summary of Table 3): potent activity; IC50 (lung carcinoma (A-549); Homo sapiens, A549, 72 h): 110 nM; IC50 ([3]; Homo sapiens, HCT-8, 72 h): 190 nM; IC50 (prostate cancer (PC-3); 72 h): 60 nM; activity against the androgen-insensitive prostate cancer cell line PC-3 (in words) (prostate cancer (PC-3); PC-3, summary of Table 3): potent activity
11 | COc1cc([C@@H]2c3cc4c(cc3[C@@H](O[C@@H]3O[C@@H]5CO[C@@H](C)O[C@H]5[C@H](O)[C@H]3O)[C@H]3COC(=O)[C@H]23)OCO4)cc(OC)c1O [VP-16, reference compound] | – | > 10000 | – | – | – | – | 1360 | IC50 [1, 10]: 4760 nM
12 | CC(OC(=O)CCCC(=O)[O-])c1cc2c(s1)C(=O)c1sccc1C2=O.[Na+] (stereo not drawn) [IIb-2-Na, Sodium mono-[1-(4,8-dioxo-4,8-dihydroxybenzo[1,2-b;5,4-b′]dithiophen-2-yl)-ethyl]pentanedioate] | 1360 | 1130 | 1890 | 1890 | 880 | ≥ 9600 | – | –
13 | CC(OC(=O)CCC(=O)[O-])c1cc2c(s1)C(=O)c1ccsc1C2=O.[Na+] (stereo not drawn) [VII-1-Na, Sodium mono-[1-(4,8-dioxo-4,8-dihydroxybenzo-[1,2-b;4,5-b′]dithiophen-2-yl)-ethyl]succinate] | 2140 | 1960 | 2220 | 1440 | 730 | ≥ 10000 | – | –
14 | C[C@H](NC(=O)c1cc2c(s1)C(=O)c1ccsc1C2=O)C(=O)[O-].[Na+] [XVI-Na] | 1760 | – | 540 | 510 | 170 | ≥ 3200 | – | IC50 ([2]; Homo sapiens, KBVIN, 72 h): 540 nM
15 | CC(OCC(=O)[O-])c1cc2c(s1)C(=O)c1ccsc1C2=O.[Na+] (stereo not drawn) [IX-Na, Sodium 1-(4,8-dioxo-4,8-dihydroxybenzo[1,2-b:4,5-b′]-dithiophen-2-yl-ethoxy)-acetate] | – | 1000 | – | – | – | ≥ 6000 | 260 | IC50 [1, 10]: 1110 nM; IC50 [3, 11]: 220 nM; IC50 (prostate cancer (PC-3); [12]): 140 nM
16 | O=C(O)COCc1cc2c(s1)C(=O)c1sccc1C2=O [IVa, 4,8-dioxo-4,8-dihydroxybenzo[1,2-b:5,4-b′]-dithiophen-2-yl-methoxy acetic acid] | 3610 | – | 2460 | 2070 | 1050 | – | – | IC50 ([2]; Homo sapiens, KBVIN, 72 h): 2460 nM
17 | CC(OC(=O)CCCC(=O)[O-])c1cc2c(s1)C(=O)c1ccsc1C2=O.[Na+] (stereo not drawn) [VII-2-Na, Sodium mono-[1-(4,8-dioxo-4,8-dihydroxybenzo[1,2-b;4,5-b′]dithiophen-2-yl)-ethyl]pentanedioate] | 450 | 680 | 2520 | 880 | 100 | ≥ 3400 | – | –
18 | O=C(O)c1cc2c(s1)C(=O)c1ccsc1C2=O [XIV-NH4, Ammonium 4,8-dioxo-4,8-dihydrobenzo-[1,2-b;4,5-b′]dithiophene-2-carboxylate] | – | 36000 | – | – | – | 4000 | 16200 | IC50 [1, 10]: 36000 nM; IC50 [3, 11]: 26300 nM; IC50 (prostate cancer (PC-3); [12]): 13300 nM
19 | CC(OC(=O)CCC(=O)[O-])c1cc2c(s1)C(=O)c1sccc1C2=O.[Na+] (stereo not drawn) [IIb-1-Na, Sodium mono-[1-(4,8-dioxo-4,8-dihydroxybenzo-[1,2-b;5,4-b′]dithiophen-2-yl)-ethyl]succinate] | 550 | 470 | 470 | 1830 | 370 | ≥ 3000 | – | –
20 | O=C([O-])CCCC(=O)OCc1cc2c(s1)C(=O)c1sccc1C2=O.[Na+] [IIa-2-Na, Sodium mono-[1-(4,8-dioxo-4,8-dihydrobenzo[1,2-b:5,4-b′]dithiophen-2-yl)methyl]pentanedioate] | 1720 | 1310 | 940 | 650 | 890 | ≥ 1800 | – | –
21 | CC(OCC(=O)[O-])c1cc2c(s1)C(=O)c1sccc1C2=O.[Na+] (stereo not drawn) [IVb-Na, Sodium 1-(4,8-dioxo-4,8-dihydroxybenzo[1,2-b:5,4b′]-dithiophen-2-yl-ethoxy)-acetate] | – | – | – | – | – | ≥ 3200 | – | –
22 | O=C(O)c1cc2c(s1)C(=O)c1sccc1C2=O [XI, 4,8-dioxo-4,8-dihydrobenzo-[1,2-b;5,4-b′]dithiophene-2-carboxylic acid] | 38300 | – | – | 37200 | – | – | 30300 | IC50 ([2]; Homo sapiens, KBVIN, 72 h): 38300 nM; IC50 (prostate cancer (PC-3); [12]): 13400 nM
23 | COc1cccc2c1C(=O)c1c(O)c3c(c(O)c1C2=O)C[C@@](O)(C(=O)CO)C[C@@H]3O[C@H]1C[C@H](N)[C@H](O)[C@H](C)O1 [Doxorubincin, reference compound] | – | 4970 | – | – | – | – | 180 | IC50 [1, 10]: 180 nM
24 | O=C(O)c1cc2c(s1)C(=O)c1sccc1C2=O [XI-NH4, Ammonium 4,8-dioxo-4,8-dihydrobenzo-[1,2-b:5,4-b′]dithiophene-2-carboxylate] | – | 36000 | – | – | – | ≥ 10000 | > 70000 | IC50 [1, 10]: 36000 nM; IC50 [3, 11]: > 70000 nM; IC50 (prostate cancer (PC-3); [12]): > 70000 nM
